Experimental data published in US9115061B2, “Naphthalene-based inhibitors of anti-apoptotic proteins” (BURNHAM INSTITUTE FOR MEDICAL RESEARCH, priority 2007, dated 2015).

The compounds below were run against BCL-XL (Homo sapiens (Human), UniProt Q07817) (assay: 1D 1H-NMR binding assay). Conditions: 4-point-rating scale; compounds 200 μM, BCL-XL 25 μM.
Description: By observing the aliphatic region of the spectra, binding could be readily detected due to chemical shift changes in active site methyl groups of Ile, Leu, Thr, Val or Ala (region between −0.8 and 0.3 ppm). All experiments were performed with a 600 MHz spectrometer Bruker Avance 600 equipped with four rf channels and z-axis pulse-field gradients.
Further: key: +++: Very Active; ++: Active; +: Mild; −: Weak.

BCL-XL, sequence (Q07817 whole entry): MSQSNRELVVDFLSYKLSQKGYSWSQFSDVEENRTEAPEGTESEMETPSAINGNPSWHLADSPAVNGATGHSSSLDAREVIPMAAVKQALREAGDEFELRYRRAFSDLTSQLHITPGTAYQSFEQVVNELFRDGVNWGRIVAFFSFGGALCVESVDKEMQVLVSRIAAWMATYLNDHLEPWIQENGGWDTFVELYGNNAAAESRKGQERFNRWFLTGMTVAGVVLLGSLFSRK

Question: Which “1D 1H-NMR Binding Assay (BCL-XL)” value does the source give for `Cc1cc2c(C(=O)c3ccc(-c4ccccc4)cc3)c(O)c(O)cc2c(O)c1-c1c(C)cc2c(C(=O)c3ccc(-c4ccccc4)cc3)c(O)c(O)cc2c1O` [Compound IX, (1,1′,6,6′,7,7′-hexahydroxy-3,3′-dimethyl-2,2′-binaphthyl-5,51-diyl)bis(biphenyl-4-ylmethanone)] here?
Answer: Its value is “−”.

Question: How did the “1D 1H-NMR Binding Assay (BCL-XL)” value turn out when `Cc1cc2c(C(=O)C(C)C)c(O)c(O)cc2c(O)c1-c1c(C)cc2c(C(=O)C(C)C)c(O)c(O)cc2c1O` [Compound III, 1,1′-(1,1′6,6′,7,7′-hexahydroxy-3,3′-dimethyl-2,2′-binaphthyl-5,5′-diyl)bis(2-methylpropan-1-one)] was run?
Answer: Its value is “++”.

Question: With `CCCCC(CC)CC(=O)c1c(O)c(O)cc2c(O)c(-c3c(C)cc4c(C(=O)CC(CC)CCCC)c(O)c(O)cc4c3O)c(C)cc12` (stereo not drawn) [Compound V, 1,1′-(1,1′,6,6′,7,7′-hexahydroxy-3,3′-dimethyl-2,2′-binaphthyl-5,5′-diyl)bis(3-ethylheptan-1-one)] as the compound, how does the “1D 1H-NMR Binding Assay (BCL-XL)” value read?
Answer: Its value is “+”.

Question: Which “1D 1H-NMR Binding Assay (BCL-XL)” value does the source give for `Cc1cc2c(C(=O)CCc3ccc(F)cc3)c(O)c(O)cc2c(O)c1-c1c(C)cc2c(C(=O)CCc3ccc(F)cc3)c(O)c(O)cc2c1O` [Compound XVI, 1,1′-(1,1′,6,6′,7,7′-hexahydroxy-3,3′-dimethyl-2,2′-binaphthyl-5,5′-diyl)bis(3-(4-fluorophenyl)propan-1-one)] here?
Answer: Its value is “+”.

Question: For `Cc1cc2c(C(=O)c3ccc(C(C)(C)C)cc3)c(O)c(O)cc2c(O)c1-c1c(C)cc2c(C(=O)c3ccc(C(C)(C)C)cc3)c(O)c(O)cc2c1O` [Compound X, (1,1′,6,6′,7,7′-hexahydroxy-3,3′-dimethyl-2,2′-binaphthyl-5,5′-diyl)bis((4-tert-butylphenyl)methanone)], which “1D 1H-NMR Binding Assay (BCL-XL)” value is on record?
Answer: The value was “−”.

Question: Which “1D 1H-NMR Binding Assay (BCL-XL)” value does the source give for `Cc1cc2c(C(=O)CC3CCCCC3)c(O)c(O)cc2c(O)c1-c1c(C)cc2c(C(=O)CC3CCCCC3)c(O)c(O)cc2c1O` [Compound XV, 1,1′-(1,1′,6,6′,7,7′-hexahydroxy-3,3′-dimethyl-2,2′-binaphthyl-5,5′-diyl)bis(2-cyclohexylethanone)] here?
Answer: The value was “++”.

Question: For `CCCCC(=O)c1c(O)c(O)cc2c(O)c(-c3c(C)cc4c(C(=O)CCCC)c(O)c(O)cc4c3O)c(C)cc12` [Compound XX, 1,1′-(1,1′,6,6′,7,7′-hexahydroxy-3,3′-dimethyl-2,2′-binaphthyl-5,5′-diyl)dipentan-1-one], which “1D 1H-NMR Binding Assay (BCL-XL)” value is on record?
Answer: Its value is “+”.

Question: `Cc1cc2cc(O)c(O)cc2c(O)c1-c1c(C)cc2cc(O)c(O)cc2c1O` [Compound II, 3,3′-dimethyl-2,2′-binaphthyl-1,1′,6,6′,7,7′-hexaol] was tested. Which “1D 1H-NMR Binding Assay (BCL-XL)” value did it give?
Answer: Its value is “+”.

Question: Which “1D 1H-NMR Binding Assay (BCL-XL)” value does the source give for `Cc1cc2c(C(=O)Cc3cccc(Br)c3)c(O)c(O)cc2c(O)c1-c1c(C)cc2c(C(=O)Cc3cccc(Br)c3)c(O)c(O)cc2c1O` [Compound XIII, 1,1′-(1,1′,6,6′,7,7′-hexahydroxy-3,3′-dimethyl-2,2′-binaphthyl-5,5′-diyl)bis(2-(3-bromophenyl)ethanone)] here?
Answer: Its value is “++”.
